Results on one substance are retold here after US20090170759A1, “NEUROPROTECTIVE PEPTIDES” (priority 2007, published 2009).

Test [1] relates to rat cerebral cortical cultures. Nature of the test: Neurite outgrowth assay (MAP2-FITC immunofluorescence), cortical cultures. The class given is cell-based. The source says: Dissociated hippocampal and cortical cell cultures were established from embryonic day 18 rat fetuses as previously described (Mattson et al., 1994). Briefly, fetuses were removed via cesarean section from pregnant moms (Sprague-Dawley) anesthetized with halothane according to the AVMA Panel on Euthanasia. Pups were decapitated and the brains were removed and placed in HEPES-buffered Hank's Balanced Salt solution (HBSS; Gibco). The hippocampi and cortices were dissected out and pooled according to tissue-type. Tissue was trypsinized for 15 min (1 mg/ml trypsin-HBSS; Worthington), rinsed with fresh HBSS, incubated in trypsin inhibitor (1 mg/ml; Sigma) for 5 min, rinsed again with fresh HBSS and then triturated in 1 ml fresh HBSS with a fire-polished glass pipette. Dissociated cells were seeded at 30,000 cells/well onto poly-D-lysine coated 96-well plates (Collaborative BioScience). Each well contained 100 μl of Eagle's Minimal Essential Media (MEM; Gibco) supplemented with 26 mM NaHCO3 (Sigma), 56 mM glucose (Sigma), 15 mM KCl (Sigma), 1 mM sodium pyruvate (Sigma), 1.1 mM L-glutamine (Sigma), 10% (v/v) heat-inactivated fetal bovine serum (Hyclone), and 0.001% gentamicin sulfate (Sigma) (pH 7.4). Cells were allowed to attach for 24 h in a humidified 37° C. 5% CO2 incubator before experimental treatment. The culture media was aspirated and exchanged with fresh media every three days.
Twenty-four hours after plating, cultures were treated with vehicle (PBS+0.1% BSA), 100 ng of various growth factors (brain derived neurotrophic factor (BDNF; Promega), glial-derived neurotrophic factor (GDNF; Promega), nerve growth factor (NGF; Boehringer Mannheim), basic fibroblast growth factor (bFGF; Boehringer Mannheim), insulin-like growth factor-1 (IGF-1; Boehringer Mannheim), neurotrophin-3 (NT3; Calbiochem), neurotrophin-4 (NT4; Calbiochem), ciliary neurotrophic factor (CNTF; Calbiochem), epidermal growth factor (EGF; Calbiochem), vascular endothelial growth factor (VEGF; Calbiochem)), or rhEPO (prepared same as above; 10 fM-10 nM)). Each treatment condition was run in quadruplicate or octuplicate. On the third day in culture, the media was aspirated off and replaced with fresh media and test compound. At one week in culture, the cells were fixed with 10% phosphate-buffered formalin for 15 min, then rinsed with DPBS (Sigma) and placed in blocking serum for 30 min (horse serum; 1:50 dilution in DPBS; Vector Labs). Cultures were rinsed again with DPBS and then incubated in primary antibody for 2 hr (microtubule-associated protein-2 (MAP-2) is a selective marker for dendritic processes; anti-mouse monoclonal (Chemicon); 1:1000 dilution of MAP-2 in antibody diluent (Zymed)). Negative control wells were incubated in antibody diluent alone. Background signal was determined by blank wells (cell-free) incubated with or without antibody. Cultures were rinsed again with DPBS and then placed in fluorescein for 1 hr (FITC; anti-mouse IgG; rat adsorbed; 1:50 dilution in DPBS; Vector Labs). Cultures were rinsed a final time with DPBS and then the plates were read on a Cytofluor 4000 fluorescence plate reader. Neurite outgrowth was expressed as percent change from control (vehicle; mean fluorescence±SD).
Dissociated hippocampal and cortical cell cultures were established from embryonic day 18 rat fetuses as previously described (Mattson et al., 1994). Briefly, fetuses were removed via cesarean section from pregnant moms (Sprague-Dawley) anesthetized with halothane according to the AVMA Panel on Euthanasia. Pups were decapitated and the brains were removed and placed in HEPES-buffered Hank's Balanced Salt solution (HBSS; Gibco). The hippocampi and cortices were dissected out and pooled according to tissue-type. […]

Another test relates to bak. In words: EPO induced gene expression in PC12 cells, quantitative RT-PCR (bak). The class given is cell-based, rat. The conditions noted are these: PC-12 cells. How it is done:
(§1) PC-12 cells (from a rat Pheochromocytoma) were cultured on poly-D-Lysine coated tissue culture plastic in DMEM containing 10% FBS and 5% Horse serum. To induce the neuronal phenotype in PC-12 cells, serum was removed and the cells were treated with NGF (50 ng/ml). Cells were grown for 7 days in the presence of the NGF then used for experiments.
PC-12 cells were cultured as described in Example 1 in a 10 cm poly-D-lysine coated tissue culture dish. […] Total RNA was then isolated using a Qiagen RNAeasy mini prep kit and used for RT-PCR.
(§2) Real time reverse transcription and PCR were performed in a single reaction using a light cycler and an RNA amplification kit from Roche Molecular Biochemicals. RNA was quantitated and added in equal amounts to reaction mix that includes the dsDNA specific dye SYBR green I. Specific PCR reaction products are quantitated by detecting the amount of fluorescence in the reaction at each PCR cycle. Final analysis was performed using the data analysis software included with the light cycler instrument.

The subject of a further test is bclXL. In words: EPO induced gene expression in PC12 cells, quantitative RT-PCR (bclXL). As to conditions: PC-12 cells. The class given is cell-based, rat. On the procedure:
as §1
PC-12 cells were cultured as described in Example 1 in a 10 cm poly-D-lysine coated tissue culture dish. Cells were incubated in the presence of 1 U/ml of EPO for 24 hr. Total RNA was then isolated using a Qiagen RNAeasy mini prep kit and used for RT-PCR.
as §2

For the next test, the system named is PC-12 cells. Nature of the test: NGF withdrawal in PC-12 cells. The class given is cell-based, rat. On the procedure:
[…] cells (from a rat Pheochromocytoma) were cultured on poly-D-Lysine coated tissue culture plastic in DMEM containing 10% FBS and 5% Horse serum. To induce the neuronal phenotype in PC-12 cells, serum was removed and the cells were treated with NGF (50 ng/ml). Cells were grown for 7 days in the presence of the NGF then used for experiments.
PC-12 cells were cultured as described above in a 96 well poly-d-lysine coated multi-well plate and treated with rhEPO (1 pm to 10 nm) for 24 hr prior to NGF withdrawal. On the day of the experiment the cells were washed with buffer 3 times to remove NGF and then cultured in fresh media without NGF. Immediately following NGF washout cells were counted (t=0) to determine the number of living cells. Cell viability was based on morphological characteristics including phase brightness, presence of axons, and absence of blebbing. Cell counts were performed at 12 hr, 24 hr, 48 hr and 72 hr and the number of viable cells were scored.

[2] abbreviates: 1 nm EPO for 24 hr (FIG. 3 legend).

Entries after “also recorded” stand apart in the source; their conditions may differ.

For “rhEPO: purified, recombinant human EPO (rhEPO), currently formulated and distributed under the trademarks of EPREX, ERYPO, or PROCRIT”, the “neurite outgrowth response over control, cortical cultures” value in test [1] (Example 3, one week in culture) is 15-29%. In addition, in test [1] (figure legends), the “neurite outgrowth in rat cerebral cortical cultures (in words)” value is recorded as “promotes neurite outgrowth”. Besides, the “ability to increase neurite outgrowth in cortical cultures compared with known growth factors” value in test [1] (growth factors at 100 ng) is “greater than or equal to that of known growth factors”. In addition, in the test on bak (setting [2]), the “decrease in the expression of the pro-apoptotic Bak” value is “greater than 5 fold”. In the test with bak (EPO 1 U/ml for 24 hr), the “decrease in the expression of the pro-apoptotic gene bak” value worked out at 5 fold. In addition, the “increase in the expression of the anti-apoptotic gene bclXL” value in the test with bclXL (setting [2]) and in the test with bclXL (EPO 1 U/ml for 24 hr) was 6 fold each time. Besides, in the test with PC-12 cells (1 nm), the “neuroprotective effect at 1 nm, growth factor withdrawal” value is “no significant effect”. The “peak / optimum concentration for the neuroprotective effect, NGF withdrawal” value in the test on PC-12 cells (24 hr pre-treatment before NGF withdrawal) stood at 10 pm. Moreover, the “viable cells / cell death after NGF withdrawal (in words)” value with PC-12 cells (24 hr pre-treatment, 12 hr, 24 hr, 48 hr and 72 hr after withdrawal, listed as EPO) is reported as “significant decrease in cell death; also recorded: increased the number of viable cells at each time point”.
